Results published in ChEMBL document CHEMBL1149218, “Predicting pharmacophore signals for post-coital antifertility activity of 1-trifluoromethyl-1,2,2-triphenylethylene derivatives: a statistical approximation using E-state index” (2004).

Test system: Rattus norvegicus
Assay: Effective oral dose of compound for Post-coital antifertility activity was determined in rats
Type: functional
Design: unit not given here

SMILES	pED50
COc1ccc(C(=C(c2ccccc2)C(F)(F)F)c2ccc(OC)cc2)cc1	2.079
COc1ccc(C(=C(c2ccccc2)c2ccccc2)C(F)(F)F)cc1	2.079
FC(F)(F)C(=C(c1ccccc1)c1ccccc1)c1ccccc1	2.079
Fc1cccc(C(=C(c2ccccc2)c2ccccc2)C(F)(F)F)c1	1.204
COc1ccc(/C(=C(/c2ccccc2)C(F)(F)F)c2ccccc2)cc1	1.114
Fc1ccccc1C(=C(c1ccccc1)c1ccccc1)C(F)(F)F	1.204
FC(F)(F)C(c1ccccc1)C(c1ccccc1)c1ccccc1 (stereo not drawn)	2.991
COc1ccc(/C(=C(\c2ccccc2)C(F)(F)F)c2ccccc2)cc1	1.602
FC(F)(F)C(=C(c1ccccc1)c1ccccc1)c1cccs1	2.914
FC(F)(F)C(F)(F)C(=C(c1ccccc1)c1ccccc1)c1ccccc1	2.301
FC(F)(F)C(=C(c1ccccc1)c1ccccc1)c1cccc(C(F)(F)F)c1	1.477
FC(F)(F)C(=C(c1ccccc1)c1ccccc1)c1ccc(C(F)(F)F)cc1	1.477
Fc1ccc(C(=C(c2ccccc2)c2ccccc2)C(F)(F)F)cc1	1.602
Fc1ccc(/C(=C(/c2ccccc2)C(F)(F)F)c2ccccc2)cc1	2.491
FC(F)(F)C(=C(c1ccccc1)c1ccccc1)c1ccc(Cl)cc1	1.477
Cc1ccc(C(=C(c2ccccc2)c2ccccc2)C(F)(F)F)cc1	2.681
FC(F)(F)C(=C(c1ccccc1)c1ccccc1)c1ccc(C(F)(C(F)(F)F)C(F)(F)F)cc1	1.204
COc1ccc(/C(=C(/c2ccc(F)cc2)C(F)(F)F)c2ccccc2)cc1	1.301
